The values below come from patent publication US12006289B2, “Potassium channel inhibitors” (Saniona A/S, priority 2019, dated 2024).

The target in the assay is erythrocyte KCa3.1 channels (Homo sapiens (Human), UniProt O15554). The assay can be described thus: Erythrocyte KCa3.1 assay. Conditions: human erythrocytes, A23187-activated, 37° C.; read-out: RBC K (in vitro) Human IC50. It counts as cell-based. As to the method:
Human blood was drawn from healthy human volunteers in a standard heparinized blood sampling vial (Vacutainer, Li/heparin, BD Bioscience, Plymouth, UK). The erythrocytes were packed by centrifugation, and the plasma and buffy coat were removed by aspiration. Erythrocytes were washed three times in the experimental salt solution and then stored at 0° C. until use. Blood samples from NMRI mice or from Wistar rats were treated similarly. The methodological principle is outlined in Macey et al. (1978) and further described in Strøbæk et al. (2013). Activation of the erythrocyte KCa3.1 channels were obtained by addition of the Ca^2+ ionophore A23187, which causes synchronized hyperpolarization, which is reported as a CCCP-mediated shift in the unbuffered extracellular pH of the erythrocyte suspension. Standard procedure: 3 mL unbuffered experimental salt solution (in mM: 2 KCl, 154 NaCl, 0.05 CaCl2) was heated to 37° C. with stirring. Packed erythrocytes were added (50 μL, final cytocrit 1.5%), and the extracellular pH (pHo) followed with a glass/calomel (pHG200-8/REF200, Radiometer, Denmark) electrode pair. CCCP (3 μL, final concentration 20 μM) was added followed by varying concentrations of test compounds (DMSO concentration constant). After pH stabilization at ˜7.2, A23187 (3 μL, final concentration 0.33 μM) was added to initiate the experiment. After the peak hyperpolarization was attained, the intracellular pH (pHi constant during the experiment) was found by haemolysing the erythrocytes via addition of 100 μL of Triton-X100.
The erythrocyte membrane potential, Vm, was calculated according to: Vm=−61.5 mV×(pHo−pHi) and the fractional remaining Ca^2+-activated K^+-conductance at the concentration C of blocker, fGK(C), was calculated from
[formula] where the K^+ equilibrium potential EK=−107 mV, the Cl^− equilibrium potential ECl=−12 mV and the Vm(0) and Vm(C) are the peak hyperpolarizations in the control and in the presence of a concentration of C of blocker respectively.
IC50 values for compounds were calculated from a plot of fGK(C) versus C by a fit to the Hill equation, using a custom program written in the IGOR-Pro software (WaveMetrics, Lake Oswego, OR, USA). All IC50-values are reported in μM.
Regarding `COC(=O)N1CC(N(C(=O)OC)C2(c3ccc(F)c(C(F)(F)F)c3)CC2)C1` [[4], Methyl 3-((1-(4-fluoro-3-(trifluoromethyl)phenyl)cyclopropyl) (methoxycarbonyl)amino)azetidine-1-carboxylate], the half-maximal inhibitory concentration (IC50) (in general, the concentration that inhibits the measured activity by half) was found to be 71 nM.

`COC(=O)N(C1CNC1)C1(c2ccc(F)c(C(F)(F)F)c2)CC1` [[5], Methyl azetidin-3-yl(1-(4-fluoro-3-(trifluoromethyl)phenyl)cyclopropyl)carbamate]: the IC50 turned out to be 310 nM.

`Fc1ccc(C2(N(CC3CC3)C3CNC3)CC2)cc1C(F)(F)F` [[6], N-(cyclopropylmethyl)-N-(1-(4-fluoro-3-(trifluoromethyl)phenyl)cyclopropyl)azetidin-3-amine]: the IC50 is 190 nM.

Turning to `COC(=O)N(CCN)C1(c2ccc(F)c(C(F)(F)F)c2)CC1` [[7], Methyl (2-aminoethyl)(1-(4-fluoro-3-(trifluoromethyl)phenyl)cyclopropyl)carbamate], the IC50 turned out to be 480 nM.

For `CC(C)(N)CN(C(=O)C1CC1)C1(c2ccc(F)c(C(F)(F)F)c2)CC1` [[9], N-(2-amino-2-methylpropyl)-N-(1-(4-fluoro-3-(trifluoromethyl)phenyl)cyclopropyl)cyclopropanecarboxamide], the IC50 is 350 nM.

`CC(C)(N)CN(C1CC1)C1(c2cccc(C(F)(F)F)c2)CC1` [[10], N1-cyclopropyl-2-methyl-N1-(1-(3-(trifluoromethyl)phenyl)cyclopropyl)propane-1,2-diamine]: the IC50 was found to be 24 nM.

Consider `COC(=O)N(CC(C)(C)N)C1(c2cc(Cl)cc(Cl)c2)CC1` [[11], Methyl (2-amino-2-methylpropyl)(1-(3,5-dichlorophenyl)cyclopropyl)carbamate], for which the IC50 was 300 nM.

As to `COC(=O)N(CC(C)(C)N)C1(c2cccc(Br)c2)CC1` [[12], Methyl (2-amino-2-methylpropyl)(1-(3-bromophenyl)cyclopropyl)carbamate], the half-maximal inhibitory concentration (IC50) amounted to 400 nM.

In the case of `COC(=O)N(CC(C)(C)N)C1(c2cccc(Cl)c2)CC1` [[13], Methyl (2-amino-2-methylpropyl)(1-(3-chlorophenyl)cyclopropyl)carbamate], the IC50 worked out at 440 nM.

Regarding `CC(C)(O)CN(CC1CCN1)C1(c2ccc(F)c(C(F)(F)F)c2)CC1` (stereo not drawn) [[14], 1-((azetidin-2-ylmethyl)(1-(4-fluoro-3-(trifluoromethyl)phenyl)cyclopropyl)amino)-2-methyl propan-2-ol], the IC50 came out at 250 nM.

As for `COC(=O)N(CC(C)(C)N)C1(c2cccc(C(F)(F)F)c2)CC1` [[15], Methyl (2-amino-2-methylpropyl)(1-(3-(trifluoromethyl)phenyl)cyclopropyl)carbamate], the concentration for half-maximal inhibition (IC50) stood at 140 nM.

On to `CC(C)(N)CN(C1CCC1)C1(c2cccc(C(F)(F)F)c2)CC1` [[18], N1-cyclobutyl-2-methyl-N1-(1-(3-(trifluoromethyl)phenyl)cyclopropyl)propane-1,2-diamine], for which the IC50 amounted to 18 nM.

On to `CCOC(=O)N(CC(C)(C)N)C1(c2ccc(F)c(C(F)(F)F)c2)CC1` [[19], Ethyl (2-amino-2-methylpropyl)(1-(4-fluoro-3-(trifluoromethyl)phenyl)cyclopropyl)carbamate], for which the IC50 amounted to 47 nM.

As for `COC(=O)N(CC(C)(C)N)C1(c2ccc(F)c(OC(F)(F)F)c2)CC1` [[20], Methyl (2-amino-2-methylpropyl)(1-(4-fluoro-3-(trifluoromethoxy)phenyl)cyclopropyl)carbamate], the half-maximal inhibitory concentration (IC50) was 92 nM.

Regarding `CC(C)(N)CN(C1(c2ccc(F)c(C(F)(F)F)c2)CC1)S(C)(=O)=O` [[21], N-(2-amino-2-methylpropyl)-N-(1-(4-fluoro-3-(trifluoromethyl)phenyl)cyclopropyl)methanesulfonamide], the IC50 came to 75 nM.

Consider `COC(=O)N(C[C@H]1CCCN1)C1(c2ccc(F)c(C(F)(F)F)c2)CC1` [[22], Methyl (R)-(1-(4-fluoro-3-(trifluoromethyl)phenyl)cyclopropyl)(pyrrolidin-2-ylmethyl)carbamate], for which the IC50 worked out at 210 nM.

With `COC(=O)N(C[C@@H]1CCCN1)C1(c2ccc(F)c(C(F)(F)F)c2)CC1` [[23], Methyl (S)-(1-(4-fluoro-3-(trifluoromethyl)phenyl)cyclopropyl)(pyrrolidin-2-ylmethyl)carbamate], the IC50 was 120 nM.

Consider `COC(=O)N(CC(C)(C)NC(C)=O)C1(c2ccc(F)c(C(F)(F)F)c2)CC1` [[24], Methyl (2-acetamido-2-methylpropyl)(1-(4-fluoro-3-(trifluoromethyl)phenyl)cyclopropyl)carbamate], for which the IC50 was found to be 310 nM.

In the case of `CC(C)(N)CNC1(c2ccc(F)c(C(F)(F)F)c2)CC1` [[25], N1-(1-(4-fluoro-3-(trifluoromethyl)phenyl)cyclopropyl)-2-methylpropane-1,2-diamine], the IC50 turned out to be 180 nM.

On to `COC(=O)N(CC1CCN1)C1(c2ccc(F)c(C(F)(F)F)c2)CC1` (stereo not drawn) [[26], Methyl (azetidin-2-ylmethyl)(1-(4-fluoro-3-(trifluoromethyl)phenyl)cyclopropyl)carbamate], for which the half-inhibitory concentration (IC50) turned out to be 210 nM.

Turning to `COC(=O)N(C[C@@H]1CCCN1)C1(c2ccc(F)c(OC(F)(F)F)c2)CC1` [[28], Methyl (S)-(1-(4-fluoro-3-(trifluoromethoxy)phenyl)cyclopropyl)(pyrrolidin-2-ylmethyl)carbamate], the IC50 worked out at 87 nM.

As for `COC(=O)N(C[C@H]1CCCN1)C1(c2ccc(F)c(OC(F)(F)F)c2)CC1` [[29], Methyl (R)-(1-(4-fluoro-3-(trifluoromethoxy)phenyl)cyclopropyl)(pyrrolidin-2-ylmethyl)carbamate], the IC50 stood at 330 nM.

`COC(=O)N(CC1CCN1C)C1(c2ccc(F)c(C(F)(F)F)c2)CC1` (stereo not drawn) [[30], Methyl (1-(4-fluoro-3-(trifluoromethyl)phenyl)cyclopropyl)((1-methylazetidin-2-yl)methyl)carbamate]: the IC50 worked out at 170 nM.

With `COC(=O)N(CC1CCN1)C1(c2ccc(F)c(OC(F)(F)F)c2)CC1` (stereo not drawn) [[32], Methyl (azetidin-2-ylmethyl)(1-(4-fluoro-3-(trifluoromethoxy)phenyl)cyclopropyl)carbamate], the IC50 was 270 nM.

Turning to `COC(=O)N(CC(C)(C)NO)C1(c2ccc(F)c(C(F)(F)F)c2)CC1` [[33], Methyl (1-(4-fluoro-3-(trifluoromethyl)phenyl)cyclopropyl)(2-(hydroxyamino)-2-methylpropyl)carbamate], the IC50 came out at 120 nM.

For the compound `CCOC(=O)N(C[C@@H]1CCCN1)C1(c2ccc(F)c(C(F)(F)F)c2)CC1` [[34], Ethyl (S)-(1-(4-fluoro-3-(trifluoromethyl)phenyl)cyclopropyl)(pyrrolidin-2-ylmethyl)carbamate], the IC50 came out at 52 nM.

Turning to `CN1CCC[C@H]1CN(C1(c2ccc(F)c(C(F)(F)F)c2)CC1)S(C)(=O)=O` [[37], (S)—N-(1-(4-fluoro-3-(trifluoromethyl)phenyl)cyclopropyl)-N-((1-methylpyrrolidin-2-yl)methyl)methanesulfonamide], the IC50 was found to be 140 nM.

With `CCOC(=O)N(C[C@H]1CCCN1)C1(c2ccc(F)c(C(F)(F)F)c2)CC1` [[38], Ethyl (R)-(1-(4-fluoro-3-(trifluoromethyl)phenyl)cyclopropyl)(pyrrolidin-2-ylmethyl)carbamate], the IC50 came to 120 nM.

Turning to `COC(=O)N(C[C@@H]1COCCN1)C1(c2ccc(F)c(C(F)(F)F)c2)CC1` [[39], Methyl (R)-(1-(4-fluoro-3-(trifluoromethyl)phenyl)cyclopropyl)(morpholin-3-ylmethyl) carbamate], the IC50 was 420 nM.

Regarding `COC(=O)N(C[C@@H]1COCCN1C)C1(c2ccc(F)c(C(F)(F)F)c2)CC1` [[40], Methyl (R)-(1-(4-fluoro-3-(trifluoromethyl)phenyl)cyclopropyl)((4-methylmorpholin-3-yl)methyl)carbamate], the IC50 was determined as 270 nM.

For `CS(=O)(=O)N(C[C@H]1CCCN1)C1(c2ccc(F)c(C(F)(F)F)c2)CC1` [[41], (R)—N-(1-(4-fluoro-3-(trifluoromethyl)phenyl)cyclopropyl)-N-(pyrrolidin-2-ylmethyl) methane sulfonamide], the IC50 amounted to 380 nM.

Regarding `COC(=O)N(C[C@H]1COCCN1C)C1(c2ccc(F)c(C(F)(F)F)c2)CC1` [[43], Methyl (S)-(1-(4-fluoro-3-(trifluoromethyl)phenyl)cyclopropyl)((4-methylmorpholin-3-yl)methyl)carbamate], the IC50 came to 290 nM.

As to `O=C(OC1CC1)N(C[C@@H]1CCCN1)C1(c2ccc(F)c(C(F)(F)F)c2)CC1` [[45], Cyclopropyl (S)-(1-(4-fluoro-3-(trifluoromethyl)phenyl)cyclopropyl)(pyrrolidin-2-ylmethyl)carbamate], the IC50 came out at 180 nM.
